Data published in patent US9757408B2 (Hayashibara Co., Ltd., priority 2010, dated 2017).
Marks after values point to notes of the source that are not given here.

How the values were obtained:
[1] = test system: NHDF cells; assay: Cell survival rate of NHDF cells after hydrogen peroxide oxidant stress (Experiment 18); assay type: cell-based, human
Procedure: To the wells, which had not been treated with hydrogen peroxide, was added 100 μL/well of Hanks' solution. […] Thereafter, the supernatant in each well was removed by sucking, and “CELL COUNTING KIT-8”, a product name of a reagent solution for counting viable cells, commercialized by Dojindo Molecular Technologies, Inc., Kumamoto, Japan, which had been diluted with D-MEM medium supplemented with 10% FCS by 20-times, was added to the wells in an amount of 100 μL/well, followed by incubating the cells in a 5% v/v CO2 incubator at 37° C. for two hours. Finally, the microplates were measured for absorbance at a wavelength of 450 nm on a plate reader. For each well, a relative absorption value was determined when the absorbance of a well of NHDF cells, which had been cultured by the addition of only medium, was regarded as 100, and it is expressed as a cell survival rate (%) in Table 21.

[2] = test system: TNF-α in serum of mice administered with LPS; assay: Serum TNF-α in LPS-administered mice, ANO i.v. (Experiment 7); assay type: in vivo, BALB/c mice; details: LPS 18 mg/kg i.p., serum two hours after LPS
Procedure: (§1) More specifically, 18 BALB/c female mice, 9-week-old, commercialized by Japan Charles River, Tokyo, Japan, were randomly divided into three groups, six heads each. An LPS specimen derived from E. coli (055:B5), commercialized by Sigma-Aldrich Corporation, St. Louis, Mo. USA, was dissolved in physiological saline and intraperitoneally administered to all the 6 mice in respective three groups at a dose of 18 mg/kg body weight of LPS (Experiment groups 1 to 3). […] To the six mice of the remaining one group was intravenously administered PBS in a liquid volume of 0.2 mL/head simultaneously with the administration of LPS (Experiment group 1).
(§2) For the mice in each group, they were collected blood at two hours after the LPS administration, followed by assaying the level of TNF-α, IL-6, IL-10, and IL-12 in each serum and averaging the data for each group. For the assay of the level of TNF-α, the same ELISA as in Experiment 2 was used and for the assay of the level of IL-6, the same ELISA as in Experiment 3 was used. […]

[3] = test system: IL-12 in serum of mice administered with LPS; assay: Serum IL-12 in LPS-administered mice, ANO i.v. (Experiment 7); assay type: in vivo, BALB/c mice; details: LPS 18 mg/kg i.p., serum two hours after LPS
Procedure: as §1, §2

[4] = test system: IL-10 in serum of mice administered with LPS; assay: Serum IL-10 in LPS-administered mice, ANO i.v. (Experiment 7); assay type: in vivo, BALB/c mice; details: LPS 18 mg/kg i.p., serum two hours after LPS
Procedure: as §1, §2

[5] = test system: IL-10 in serum of mice administered with LPS; assay: Serum IL-10 in LPS-administered mice, oral administration (Experiment 11); assay type: in vivo, BALB/c mice; details: LPS 18 mg/kg i.p., serum 90 min after LPS
Procedure: The seven mice in another one group were orally administered through a gastric tube with 3′-glucosyl-adenosine N1-oxide, which had been dissolved in PBS, at a dose of 200 mg/kg body weight in a liquid volume of 0.2 mL/head (Experiment group 4). The seven mice in the remaining one group were orally administered through a gastric tube with PBS in a liquid volume of 0.2 mL/head (Experiment group 1). All the mice were intraperitoneally administered with an LPS specimen derived from E. coli (055:B5), commercialized by Sigma-Aldrich Corporation, St. Louis, Mo. USA, which had been dissolved in PBS, at a dose of 18 mg/kg body weight (Experiment groups 1 to 4). For each group, the mice were collected blood from their tail veins at 90 min after administering LPS, followed by assaying the concentrations of TNF-α, IL-6, and IL-10 contained in serum by the same method as in […].

[6] = test system: mice with bacterial shock induced by LPS; assay: LPS bacterial shock mice, survival, oral administration (Experiment 10); assay type: in vivo, BALB/c mice; details: LPS 18 mg/kg i.p.
[7] = D-MEM medium, absence of human serum, 100 μM, 37° C., 24 hours

Nc1c2ncn([C@@H]3O[C@H](CO)[C@@H](O)[C@H]3O)c2nc[n+]1[O-] [ANO, adenosine N1-oxide]
Cell survival rate ([1]; addition of hydrogen peroxide: No, 3.12 μM): 100%
Cell survival rate ([1]; addition of hydrogen peroxide: No, 6.25 μM): 100%
Cell survival rate ([1]; addition of hydrogen peroxide: No, 12.5 μM): 100%
Cell survival rate ([1]; addition of hydrogen peroxide: No, 25.0 μM): 100%
Cell survival rate ([1]; addition of hydrogen peroxide: Yes, 3.1 μM): 35%
Cell survival rate ([1]; addition of hydrogen peroxide: Yes, 6.3 μM): 81%
Cell survival rate ([1]; addition of hydrogen peroxide: Yes, 12.5 μM): 83%
Cell survival rate ([1]; addition of hydrogen peroxide: Yes, 25.0 μM): 89%
influence on the cell survival rate without hydrogen peroxide ([1]; concentrations used in this experiment (Experiment groups 7 to 10)): No influence
Cell survival rate ([1]; hydrogen peroxide 200 μM, then ANO 25 μM for 24 hours, medium only = 100): 89%
TNF-α Concentration ([2]; ANO 68 mg/kg i.v.): 109** pg/mL
TNF-α Concentration ([2]; ANO 135 mg/kg i.v.): 46** pg/mL
IL-12 Concentration ([3]; ANO 68 mg/kg i.v.): 136** pg/mL
IL-12 Concentration ([3]; ANO 135 mg/kg i.v.): 105** pg/mL
IL-10 Concentration ([4]; ANO 68 mg/kg i.v.): 14.1 ng/mL
IL-10 Concentration ([4]; ANO 135 mg/kg i.v.): 19.3 ng/mL
Amount of IL-10 ([5]; oral 100 mg/kg): 5.6* ng/mL
Amount of IL-10 ([5]; oral 200 mg/kg): 9.7** ng/mL
Survival rate (%) of mice, 22 Hours ([6]; oral 400 mg/kg (200 × 2 shots)): 75%
Survival rate (%) of mice, 31 Hours ([6]; oral 400 mg/kg (200 × 2 shots)): 75%
Survival rate (%) of mice, 46 Hours ([6]; oral 400 mg/kg (200 × 2 shots)): 50%
Survival rate (%) of mice, 55 Hours ([6]; oral 400 mg/kg (200 × 2 shots)): 50%
Survival rate (%) of mice, 72 Hours ([6]; oral 400 mg/kg (200 × 2 shots)): 100%
Survival rate (%) of mice, 79 Hours ([6]; oral 400 mg/kg (200 × 2 shots)): 50%
Survival rate (%) of mice, 22 Hours ([6]; oral 600 mg/kg (200 × 3 shots)): 87.5%
Survival rate (%) of mice, 31 Hours ([6]; oral 600 mg/kg (200 × 3 shots)): 87.5%
Survival rate (%) of mice, 46 Hours ([6]; oral 600 mg/kg (200 × 3 shots)): 87.5%
Survival rate (%) of mice, 55 Hours ([6]; oral 600 mg/kg (200 × 3 shots)): 87.5%
Survival rate (%) of mice, 72 Hours ([6]; oral 600 mg/kg (200 × 3 shots)): 100%
Survival rate (%) of mice, 79 Hours ([6]; oral 600 mg/kg (200 × 3 shots)): 75%
residual percentage [7]: 100%
